We go through 63 compounds from patent US7638535B2, “4-(aminomethyl)-piperidine benzamides as 5HT4-antagonists” (Janssen Pharmaceutica N.V., priority 2003, dated 2009).

In the experiment the target is T1, h5-HT4b (Homo sapiens, UniProt Q13639).
T1 construct: expressed in transfected cells; host or cells: HEK 293 (clone 9), membrane preparation
T1 sequence (Q13639 whole entry): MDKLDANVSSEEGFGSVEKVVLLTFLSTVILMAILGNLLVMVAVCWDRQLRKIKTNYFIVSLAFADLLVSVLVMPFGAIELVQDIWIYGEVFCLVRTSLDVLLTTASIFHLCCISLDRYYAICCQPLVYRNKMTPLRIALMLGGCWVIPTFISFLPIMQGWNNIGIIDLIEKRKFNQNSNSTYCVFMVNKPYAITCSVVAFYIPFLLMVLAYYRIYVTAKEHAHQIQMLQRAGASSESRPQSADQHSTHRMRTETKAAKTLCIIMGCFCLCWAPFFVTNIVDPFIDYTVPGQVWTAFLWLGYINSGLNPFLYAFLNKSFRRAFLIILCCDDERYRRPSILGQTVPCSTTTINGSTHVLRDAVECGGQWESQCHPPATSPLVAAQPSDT
The experiment can be described thus: 5HT4 antagonism: [3H]GR113808 binding to membranes of h5-HT4b-HEK 293 clone 9 cells. The conditions noted are these: displacement of [3H]GR113808 0.1 nM, h5-HT4b-HEK 293 membranes, 30 min at 25° C.; read-out: pIC50 (5HT4 antagonistic data) (converted). The procedure: h5-HT4b-HEK 293 clone 9 cells were cultured in 150 mm Petri dishes and washed twice with cold PBS. The cells were then scraped from the plates and suspended in 50 mM Tris-HCl buffer, pH 7.4 and harvested by centrifugation at 23,500 rpm for 10 minutes. The pellet was resuspended in 5 mM Tris-HCl, pH 7.4 and homogenized with an Ultra Turrax homogenizer. The membranes were collected by centrifugation at 30,000 rpm for 20 min, resuspended in 50 mM Tris-HCl pH 7.4 and stored at −80° C. For the experiment, assay mixtures (0.5 ml) contained 50 μl of the tritiated ligand (5-HT4 antagonist [^3H]GR113808 0.1 nM) and 0.4 ml membrane preparation (15 μg protein/ml). 50 μl of 10% DMSO was added for total binding. 50 μl of 1 μM of (+)-trans-(1-butyl-3-hydroxy-4-piperidinyl)methyl 8-amino-7-chloro-2,3-dihydro-1,4-benzodioxin-5-carboxylate (a proprietary 5HT4 agonist of Janssen Pharmaceutica) was added for determination of non-specific binding.
The [^3H]GR113808 assay buffer was 50 mM HEPES-NaOH, pH 7.4. The mixtures were incubated for 30 min at 25° C. The incubation was terminated by filtration over a Unifilter 96 GF/B presoaked in 0.1% polyethylenimine, followed by six washing steps with 50 mM HEPES-NaOH, pH 7.4.
On the technique in general: Displacement assays read how much labelled ligand stays bound in the presence of the test substance.
Take `Nc1cc(C(=O)NC[C@@H]2CCN(CCC3OCCO3)C[C@H]2O)c2c(c1Br)OCCCO2` [compound 146]: the IC50 is 34.7 nM. Under `Nc1cc(C(=O)NC[C@@H]2CCN(CCCO)C[C@H]2O)c2c(c1Br)OCCCO2` [compound 147] stands 43.7 nM; under `CCCNc1cc2c(c(C(=O)NC[C@@H]3CCN(CCCOC)C[C@H]3O)c1)OCCCO2` [compound 148], 100 nM. Turning to `CCCNc1cc2c(c(C(=O)NC[C@@H]3CCNC[C@H]3O)c1)OCCCO2` [compound 149], the IC50 was 3550 nM.

As for `CCCCNc1cc2c(c(C(=O)NC[C@@H]3CCN(CCCC#N)C[C@H]3O)c1)OCCCO2` [compound 150], the IC50 was 120 nM. Under `CCCNc1cc2c(c(C(=O)NC[C@@H]3CCN(CCCO)C[C@H]3O)c1)OCCCO2` [compound 151] stands 89.1 nM; under `Nc1cc(C(=O)NC[C@@H]2CCN(CC3CCCO3)C[C@H]2O)c2c(c1Br)OCCCO2` (stereo partly drawn) [compound 152], 24 nM. For the compound `CCCCN1CC[C@@H](CNC(=O)c2cc(N)c(Br)c3c2OCCO3)[C@H](O)C1` [compound 153], the IC50 is 13.8 nM.

`CCCCNc1cc2c(c(C(=O)NC[C@@H]3CCNC[C@H]3O)c1)OCCCO2` [compound 154]: the IC50 was 3160 nM. On to `COCCCN1CC[C@@H](CNC(=O)c2cc(N)c(Br)c3c2OCCCO3)[C@H](O)C1` [compound 155], for which the IC50 was 55 nM.

For the compound `CCCCNc1cc2c(c(C(=O)NC[C@@H]3CCN(CCCO)C[C@H]3O)c1)OCCCO2` [compound 156], the IC50 is 46.8 nM. Consider `CCCCNc1cc2c(c(C(=O)NC[C@@H]3CCN(CCCOC)C[C@H]3O)c1)OCCCO2` [compound 157], for which the IC50 was 81.3 nM.

`N#CCCCN1CC[C@@H](CNC(=O)c2cc(C#N)cc3c2OCCCO3)[C@H](O)C1` [compound 160]: the IC50 is 20 nM. For `CCCCN1CC[C@@H](CNC(=O)c2cc(NCC)cc3c2OCCCO3)[C@H](O)C1` [compound 161], the IC50 was 85.1 nM.

For `CCCCN1CC[C@@H](CNC(=O)c2cc(C)cc3c2OCCCO3)[C@H](O)C1` [compound 164], the IC50 is 1 nM. The value for `Cc1cc2c(c(C(=O)NC[C@@H]3CCN(CCCC#N)C[C@H]3O)c1)OCCCO2` [compound 166] was 4.27 nM; that for `CC(C)Nc1cc2c(c(C(=O)NC[C@@H]3CCNC[C@H]3O)c1)OCCCO2` [compound 167] was 2400 nM.

In the case of `CC(C)Nc1cc2c(c(C(=O)NC[C@@H]3CCN(CCC4OCCO4)C[C@H]3O)c1)OCCCO2` [compound 169], the IC50 is 32.4 nM. `N#Cc1cc2c(c(C(=O)NC[C@@H]3CCN(CCC4OCCO4)C[C@H]3O)c1)OCCCO2` [compound 170]: the IC50 was 16.2 nM. The value for `CNCCCCN1CC[C@@H](CNC(=O)c2cc(C#N)cc3c2OCCCO3)[C@H](O)C1` [compound 171] was 1.62 nM. Consider `CC(C)Nc1cc2c(c(C(=O)NC[C@@H]3CCN(CCCC#N)C[C@H]3O)c1)OCCCO2` [compound 172], for which the IC50 was 107 nM. The value for `CNCCCCN1CC[C@@H](CNC(=O)c2cc(C)cc3c2OCCCO3)[C@H](O)C1` [compound 173] was 3.02 nM; that for `CCCCN1CC[C@@H](CNC(=O)c2cc(NC(C)C)cc3c2OCCCO3)[C@H](O)C1` [compound 174] was 117 nM; that for `N#Cc1cc2c(c(C(=O)NC[C@@H]3CCNC[C@H]3O)c1)OCCCO2` [compound 175] was 123 nM. Under `CCNc1cc2c(c(C(=O)NC[C@@H]3CCN(CCC4OCCO4)C[C@H]3O)c1)OCCCO2` [compound 176] stands 16.2 nM. Under `CCNc1cc2c(c(C(=O)NC[C@@H]3CCNC[C@H]3O)c1)OCCCO2` [compound 178] stands 1410 nM; under `COCCCN1CC[C@@H](CNC(=O)c2cc(NC(C)C)cc3c2OCCCO3)[C@H](O)C1` [compound 179], 63.1 nM. For `CC(C)Nc1cc2c(c(C(=O)NC[C@@H]3CCN(CCCO)C[C@H]3O)c1)OCCCO2` [compound 180], the IC50 is 43.7 nM. Under `CCCCN1CC[C@@H](CNC(=O)c2cc(N)c(Br)c3c2OCCCO3)[C@H](O)C1` [compound 181] stands 8.51 nM; under `CCNc1cc2c(c(C(=O)NC[C@@H]3CCN(CCCC#N)C[C@H]3O)c1)OCCCO2` [compound 182], 100 nM. `Nc1cc(C(=O)NC[C@@H]2CCNC[C@H]2O)c2c(c1Cl)OCCCO2` [compound 188]: the IC50 is 832 nM. `Cc1cc2c(c(C(=O)NC[C@@H]3CCN(CCCNS(C)(=O)=O)C[C@H]3O)c1)OCCCO2` [compound 189]: the IC50 is 1.86 nM. `COCc1cc2c(c(C(=O)NC[C@@H]3CCNC[C@H]3O)c1)OCCCO2` [compound 190]: the IC50 was 269 nM. The value for `Cc1cc2c(c(C(=O)NC[C@@H]3CCN(CCCC(=O)O)C[C@H]3O)c1)OCCCO2` [compound 192] was 30.9 nM; that for `Cc1cc2c(c(C(=O)NC[C@@H]3CCN(CCCCOc4ccc(S(N)(=O)=O)cc4)C[C@H]3O)c1)OCCCO2` [compound 194] was 0.589 nM; that for `CCCCN1CC[C@@H](CNC(=O)c2cc(OC)cc3c2OCCCO3)[C@H](O)C1` [compound 195] was 3.63 nM. For the compound `Cc1cc2c(c(C(=O)NC[C@@H]3CCN(CCCOc4ccc(S(N)(=O)=O)cc4)C[C@H]3O)c1)OCCCO2` [compound 196], the IC50 was 0.427 nM. For `Cc1cc2c(c(C(=O)NC[C@@H]3CCN(CCOc4ccc(S(N)(=O)=O)cc4)C[C@H]3O)c1)OCCCO2` [compound 198], the IC50 was 1.2 nM.

With `CNCCCCN1CC[C@@H](CNC(=O)c2cc(OC)cc3c2OCCCO3)[C@H](O)C1` [compound 199], the IC50 was 12.3 nM. Under `Cc1cc2c(c(C(=O)NC[C@@H]3CCN(CCC#N)C[C@H]3O)c1)OCCCO2` [compound 201] stands 14.5 nM; under `CO[C@@H]1CNCC[C@H]1CNC(=O)c1cc(C#N)cc2c1OCCCO2` [compound 203], 1350 nM; under `CO[C@@H]1CNCC[C@H]1CNC(=O)c1cc(C)cc2c1OCCCO2` [compound 204], 83.2 nM. Consider `Cc1cc2c(c(C(=O)NC[C@@H]3CCN(CCCS(C)(=O)=O)C[C@H]3O)c1)OCCCO2` [compound 205], for which the IC50 was 2.75 nM. `COCCCN1CC[C@@H](CNC(=O)c2cc(C)cc3c2OCCCO3)[C@H](OC)C1` [compound 206]: the IC50 is 3.16 nM. As for `CO[C@@H]1CN(CCCO)CC[C@H]1CNC(=O)c1cc(C#N)cc2c1OCCCO2` [compound 207], the IC50 was 37.2 nM. The value for `CO[C@@H]1CN(CCCC#N)CC[C@H]1CNC(=O)c1cc(C#N)cc2c1OCCCO2` [compound 208] was 5.62 nM. Turning to `CCCCN1CC[C@@H](CNC(=O)c2cc(C#N)cc3c2OCCCO3)[C@H](OC)C1` [compound 209], the IC50 was 17.8 nM.

Consider `CO[C@@H]1CN(CCCO)CC[C@H]1CNC(=O)c1cc(C)cc2c1OCCCO2` [compound 210], for which the IC50 was 5.25 nM. Regarding `Cc1cc2c(c(C(=O)NC[C@@H]3CCN(CCCOC(C)C)C[C@H]3O)c1)OCCCO2` [compound 212], the IC50 is 0.813 nM. For the compound `Cc1cc2c(c(C(=O)NC[C@@H]3CCN(CCCCCC(N)=O)C[C@H]3O)c1)OCCCO2` [compound 213], the IC50 is 2.63 nM.

In the case of `Cc1cc2c(c(C(=O)NC[C@@H]3CCN(CCC(N)=O)C[C@H]3O)c1)OCCCO2` [compound 214], the IC50 is 2.34 nM. The value for `CO[C@@H]1CN(CCCC#N)CC[C@H]1CNC(=O)c1cc(C)cc2c1OCCCO2` [compound 215] was 5.01 nM; that for `CNCCCCN1CC[C@@H](CNC(=O)c2cc(CC#N)cc3c2OCCCO3)[C@H](O)C1` [compound 216] was 44.7 nM. `Cc1cc2c(c(C(=O)NC[C@@H]3CCN(CCCCC(N)=O)C[C@H]3O)c1)OCCCO2` [compound 217]: the IC50 was 1.48 nM. As to `Cc1cc2c(c(C(=O)NC[C@@H]3CCN(CC4CC4)C[C@H]3O)c1)OCCCO2` [compound 218], the IC50 is 0.776 nM. Take `CC(C)OCCCN1CC[C@H](CNC(=O)c2cc(C#N)cc3c2OCCCO3)[C@@H](O)C1` [compound 219]: the IC50 was 1.86 nM.

As to `CC1(CCCN2CC[C@H](CNC(=O)c3cc(C#N)cc4c3OCCCO4)[C@@H](O)C2)OCCO1` [compound 220], the IC50 was 2.51 nM. Under `CO[C@@H]1CN(CCCNS(C)(=O)=O)CC[C@H]1CNC(=O)c1cc(C)cc2c1OCCCO2` [compound 221] stands 3.09 nM; under `CCCCN1CC[C@@H](CNC(=O)c2cc(C)cc3c2OCCCO3)[C@H](OC)C1` [compound 222], 1.32 nM. Under `CC(=O)CCCN1CC[C@@H](CNC(=O)c2cc(C#N)cc3c2OCCCO3)[C@H](O)C1` [compound 223] stands 3.72 nM; under `Cc1cc2c(c(C(=O)NC[C@@H]3CCN(CCCC(=O)N4CCCC4)C[C@H]3O)c1)OCCCO2` [compound 224], 1.78 nM; under `Cc1cc2c(c(C(=O)NC[C@@H]3CCN(CCCCNc4ncccn4)C[C@H]3O)c1)OCCCO2` [compound 230], 0.501 nM.

With `Cc1cc2c(c(C(=O)NC[C@@H]3CCN(CCCCNc4nccnc4C)C[C@H]3O)c1)OCCCO2` [compound 231], the IC50 is 0.776 nM.
